target: T1, full-length MALT1 protein (Strep-MALT1(1-824)-His) (Homo sapiens, UniProt Q9UDY8); experiment: MALT1 Biochemical Protease Assay; settings: 10 nM FL MALT1, 200 μM Ac-LRSR-AMC, 50 min pre-incubation, 4 h at RT; read-out: MALT1_Biochemical activity (Ac-LRSR-amc) IC50
T1 construct: full-length MALT1 protein (Strep-MALT1(1-824)-His) purified from baculovirus-infected insect cells; Strep (N); His (C); made in house; host or cells: baculovirus-infected insect cells
T1 sequence (Q9UDY8 1-824): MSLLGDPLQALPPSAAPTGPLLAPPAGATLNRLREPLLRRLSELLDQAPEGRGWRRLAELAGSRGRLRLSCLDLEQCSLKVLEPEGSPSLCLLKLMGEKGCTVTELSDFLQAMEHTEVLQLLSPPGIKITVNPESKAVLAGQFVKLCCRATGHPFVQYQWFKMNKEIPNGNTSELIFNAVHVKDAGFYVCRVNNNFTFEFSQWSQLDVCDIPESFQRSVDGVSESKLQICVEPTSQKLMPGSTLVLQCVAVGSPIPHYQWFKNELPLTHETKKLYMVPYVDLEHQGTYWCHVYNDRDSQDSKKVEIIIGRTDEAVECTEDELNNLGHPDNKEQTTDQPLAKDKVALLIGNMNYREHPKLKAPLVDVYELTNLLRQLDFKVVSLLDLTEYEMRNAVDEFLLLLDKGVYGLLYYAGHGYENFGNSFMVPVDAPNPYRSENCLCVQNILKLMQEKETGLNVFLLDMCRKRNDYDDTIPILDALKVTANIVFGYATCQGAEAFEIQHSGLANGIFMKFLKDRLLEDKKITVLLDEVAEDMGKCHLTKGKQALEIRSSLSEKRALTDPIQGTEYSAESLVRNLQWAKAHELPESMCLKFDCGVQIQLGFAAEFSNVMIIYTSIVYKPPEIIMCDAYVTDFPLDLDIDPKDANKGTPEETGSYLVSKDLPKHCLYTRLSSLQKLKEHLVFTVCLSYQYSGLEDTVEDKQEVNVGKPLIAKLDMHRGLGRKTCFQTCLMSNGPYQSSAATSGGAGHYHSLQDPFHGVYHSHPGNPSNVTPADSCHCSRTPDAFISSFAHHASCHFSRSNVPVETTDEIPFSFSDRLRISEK
Protocol: MALT1 protease activity was assessed in an in vitro assay using a tetrapeptide as substrate and full-length MALT1 protein (Strep-MALT1(1-824)-His) purified from baculovirus-infected insect cells. The tetrapeptide LRSR is coupled to AMC (7-amino-4-methylcoumarin) and provides a quenched, fluorescent substrate for the MALT1 protease (SM Biochemicals). Cleavage of AMC from the Arginine residue results in an increase in coumarin fluorescence measured at 460 nm (excitation 355 nm). The final assay buffer consisted of 10 nM FL MALT1 protein, 200 μM Ac-LRSR-AMC, 50 mM Tris pH 7.5, 0.6 M Citrate, 1 mM DTT, 1 mM EDTA, 0.05% BSA and 1.5% DMSO. Test compounds were spotted at 50 nL in 100% DMSO per well of a black 384-Proxiplate (Perkin Elmer). Test compound concentrations ranged from 30 μM to 0.5 nM using 11 dilution steps (1:3). Background signal was measured from control wells containing assay buffer without enzyme which functions as low control (LC). High control (HC) values were generated using the reaction with enzyme but no compound treatment. Compounds were pre-incubated with MALT1 enzyme for 50 minutes at RT. Substrate was added subsequently and fluorescence was measured in Labsystems fluoroskan at excitation 355 nm and emission 460 nm to determine time 0. The reaction was subsequently incubated for 4 h at RT and fluorescence was measured. For IC50 calculations, timepoint 0 was subtracted from the 4 h timepoint to correct for any potential autofluorescence of the compounds. The enzyme reaction was linear during the 4 h incubation period. Characterization of the substrate Ac-LRSR-AMC determined the Michaelis constant KM at 200 μM.
IC50 values were calculated using the following formula (Z prime should be >0.5): […]
A best-fit curve was fitted by a minimum sum of squares method to the plot of % Controlmin vs. compound concentration. From this an IC50 value (inhibitory concentration causing 50% inhibition) can be obtained. An estimate of the slope of the plot in terms of the Hill coefficient was also obtained.
Used in “Lexis Dose Response Curve Fitting” Version 1.0.

| IC50 [nM] | Compound |
| --- | --- |
| 1820 | CNc1cncc(NC(=O)Nc2cnc(-n3nccn3)c(Cl)c2)c1C(C)OC (racemic) [Co. 33] |
| 170 | COc1cncc(NC(=O)Nc2cnc(-n3nccn3)c(Cl)c2)c1C(C)OC (stereo not shown) [Co. 7] |
| 2400 | CO[C@@H](C)c1c(NC(=O)Nc2cnc(-n3nccn3)c(Cl)c2)cncc1OCc1ccccc1 [Co. 2] |
| 1230 | COC(C)c1c(NC(=O)Nc2cnc(-n3nccn3)c(Cl)c2)cncc1C1COC1 (racemic) [Co. 31] |
| 2820 | COC(C)c1c(NC(=O)Nc2cnc(-n3nccn3)c(Cl)c2)cncc1NC(C)C (stereo not shown) [Co. 32] |
| 2630 | CO[C@@H](C)c1c(O)cncc1NC(=O)Nc1cnc(-n2nccn2)c(Cl)c1 [Co. 5] |
| 1740 | COC(C)c1c(NC(=O)Nc2cnc(-n3nccn3)c(Cl)c2)cncc1OCC1CC1 (stereo not shown) [Co. 11] |
| 1410 | COC(C)c1c(NC(=O)Nc2cnc(-n3nccn3)c(Cl)c2)cncc1OCC(N)=O (stereo not shown) [Co. 16] |
| 3020 | CO[C@@H](C)c1c(NC(=O)Nc2cnc(-n3nccn3)c(Cl)c2)cncc1OC(C)C [Co. 10] |
| > 30200 | COC(C)c1c(NC(=O)Nc2cnc(-n3nccn3)c(Cl)c2)cncc1OCc1ccccc1 (stereo not shown) [Co. 3] |

Further lines, the molecule ahead of its results:

| Compound | IC50 [nM] |
| --- | --- |
| COC(C)c1c(F)cncc1NC(=O)Nc1cnc(-n2nccn2)c(Cl)c1 (racemic) [Co. 21] | 2630 |
| COC(C)c1c(Br)cnc(C)c1NC(=O)Nc1cnc(-n2nccn2)c(Cl)c1 (racemic) [Co. 50] | 7410 |
| COC(C)c1c(NC(=O)Nc2cnc(-n3nccn3)c(Cl)c2)cncc1C(C)C (racemic) [Co. 30] | 2140 |
| COC(C)c1c(Br)cncc1NC(=O)Nc1cnc(-n2nccn2)c(Cl)c1 (single isomer, unassigned) [Co. 19] | 2750 |
| COC(C)c1c(NC(=O)Nc2cnc(-n3nccn3)c(Cl)c2)cncc1OC1COC1 (stereo not shown) [Co. 12] | 1700 |
| COC(C)c1c(NC(=O)Nc2cnc(-n3nccn3)c(Cl)c2)cncc1OC1CC1 (racemic) [Co. 13] | 850 |
| CO[C@@H](C)c1c(NC(=O)Nc2cnc(OC(F)F)c(Cl)c2)cnc(N)c1Cl (single isomer, unassigned) [Co. 135] | 2000 |
| COC(C)c1c(NC(=O)Nc2cnc(-n3nccn3)c(Cl)c2)cnc(C2CC2)c1Br (stereo not shown) [Co. 47] | 8710 |
| COC(C)c1c(Br)cnc(C2CC2)c1NC(=O)Nc1cnc(-n2nccn2)c(Cl)c1 (stereo not shown) [Co. 48] | > 30200 |

— patent publication US12404260B2, “Pyridine rings containing derivatives as MALT1 inhibitors” (Janssen Pharmaceutica NV, priority 2019, dated 2025)
